In patent US20230085307A1, “PYRIDAZINONE COMPOUND AND HERBICIDE” (NISSAN CHEMICAL CORPORATION, priority 2019, published 2023):

Columns and labels:
late watergrass = test: Test Example 1: herbicidal activity, application before weed generation under submerged conditions (Table 16, symbol A); format: in vivo, late watergrass (Echinochloa oryzicola); settings: amount of applied herbicide 320 g/ha
Summary of the method: (§1)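 Emulsion formulation, water-diluted to set dose, was put onto the flooded surface (4 cm depth, alluvial soil) the same day weeds were sown and 2.5-leaf rice transplanted. After 3 weeks at 25-30 °C under glass, each species was rated 0 (≤5% kill) to 5 (≥90% kill).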

Japanese bulrush = test: Test Example 1: herbicidal activity, application before weed generation under submerged conditions (Table 16, symbol B); format: in vivo, Japanese bulrush (Schoenoplectus juncoides); settings: amount of applied herbicide 320 g/ha
Summary of the method: as §1

oval-leafed pondweed = test: Test Example 1: herbicidal activity, application before weed generation under submerged conditions (Table 16, symbol C); format: in vivo, oval-leafed pondweed (Monochoria vaginalis); settings: amount of applied herbicide 320 g/ha
Summary of the method: as §1

barnyard grass [1] = test: Test Example 3: herbicidal effect by foliage application, Wagner pot (Table 18, symbol H); format: in vivo, barnyard grass (Echinochloa crus-galli); settings: amount of applied herbicide 320 g/ha
Summary of the method: (§2)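 Plants were sown in alluvial soil held under 0.1–0.5 cm standing water and grown 14 days in a greenhouse at 25–30 °C. An emulsifiable formulation, water-diluted to the set dose, was then sprayed onto the foliage, and effects were scored three weeks later using previously defined criteria.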

Chinese sprangletop = test: Test Example 3: herbicidal effect by foliage application, Wagner pot (Table 18, symbol D); format: in vivo, chinese sprangletop (Leptochloa chinensis); settings: amount of applied herbicide 320 g/ha
Summary of the method: as §2

rice flat sedge = test: Test Example 3: herbicidal effect by foliage application, Wagner pot (Table 18, symbol E); format: in vivo, rice flat sedge (Cyperus iria); settings: amount of applied herbicide 320 g/ha
Summary of the method: as §2

southern crabgrass [2] = test: Test Example 4: herbicidal effect by soil treatment (Table 19, symbol F); format: in vivo, southern crabgrass (Digitaria ciliaris); settings: amount of applied herbicide 320 g/ha
Summary of the method: (§3)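 Step 1: sow seeds in sterilized diluvial soil, cover ~1.5 cm. Step 2: spray diluted emulsion onto soil surface at predetermined rate. Step 3: greenhouse, 25–30° C, three weeks. Step 4: grade effect on each plant by earlier criteria.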

green foxtail [3] = test: Test Example 4: herbicidal effect by soil treatment (Table 19, symbol G); format: in vivo, green foxtail (Setaria viridis); settings: amount of applied herbicide 320 g/ha
Summary of the method: as §3

barnyard grass [4] = test: Test Example 4: herbicidal effect by soil treatment (Table 19, symbol H); format: in vivo, barnyard grass (Echinochloa crus-galli); settings: amount of applied herbicide 320 g/ha
Summary of the method: as §3

wild oat [5] = test: Test Example 4: herbicidal effect by soil treatment (Table 19, symbol I); format: in vivo, wild oat (Avena fatua); settings: amount of applied herbicide 320 g/ha
Summary of the method: as §3

blackgrass [6] = test: Test Example 4: herbicidal effect by soil treatment (Table 19, symbol J); format: in vivo, blackgrass (Alopecurus myosuroides); settings: amount of applied herbicide 320 g/ha
Summary of the method: as §3

Italian ryegrass [7] = test: Test Example 4: herbicidal effect by soil treatment (Table 19, symbol K); format: in vivo, Italian ryegrass (Lolium multiflorum); settings: amount of applied herbicide 320 g/ha
Summary of the method: as §3

windgrass [8] = test: Test Example 4: herbicidal effect by soil treatment (Table 19, symbol L); format: in vivo, windgrass (Apera spica-venti); settings: amount of applied herbicide 320 g/ha
Summary of the method: as §3

velvetleaf [9] = test: Test Example 4: herbicidal effect by soil treatment (Table 19, symbol M); format: in vivo, velvetleaf (Abutilon theophrasti); settings: amount of applied herbicide 320 g/ha
Summary of the method: as §3

redroot pigweed [10] = test: Test Example 4: herbicidal effect by soil treatment (Table 19, symbol N); format: in vivo, redroot pigweed (Amaranthus retroflexus); settings: amount of applied herbicide 320 g/ha
Summary of the method: as §3

lambsquarters [11] = test: Test Example 4: herbicidal effect by soil treatment (Table 19, symbol O); format: in vivo, lambsquarters (Chenopodium album); settings: amount of applied herbicide 320 g/ha
Summary of the method: as §3

chickweed [12] = test: Test Example 4: herbicidal effect by soil treatment (Table 19, symbol P); format: in vivo, common chickweed (Stellaria media); settings: amount of applied herbicide 320 g/ha
Summary of the method: as §3

southern crabgrass [13] = test: Test Example 5: herbicidal effect by foliage application, plastic box (Table 20, symbol F); format: in vivo, southern crabgrass (Digitaria ciliaris); settings: foliage application, 320 g/ha, three weeks after application
Summary of the method: (§4)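 Foliar spray test: emulsion formulation diluted in water to a set application rate, sprayed onto 14-day-old plants raised in diluvial soil at 25° C to 30° C under glass. Both herbicidal effect and crop effect rated visually three weeks later.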

green foxtail [14] = test: Test Example 5: herbicidal effect by foliage application, plastic box (Table 20, symbol G); format: in vivo, green foxtail (Setaria viridis); settings: foliage application, 320 g/ha, three weeks after application
Summary of the method: as §4

barnyard grass [15] = test: Test Example 5: herbicidal effect by foliage application, plastic box (Table 20, symbol H); format: in vivo, barnyard grass (Echinochloa crus-galli); settings: foliage application, 320 g/ha, three weeks after application
Summary of the method: as §4

wild oat [16] = test: Test Example 5: herbicidal effect by foliage application, plastic box (Table 20, symbol I); format: in vivo, wild oat (Avena fatua); settings: foliage application, 320 g/ha, three weeks after application
Summary of the method: as §4

blackgrass [17] = test: Test Example 5: herbicidal effect by foliage application, plastic box (Table 20, symbol J); format: in vivo, blackgrass (Alopecurus myosuroides); settings: foliage application, 320 g/ha, three weeks after application
Summary of the method: as §4

Italian ryegrass [18] = test: Test Example 5: herbicidal effect by foliage application, plastic box (Table 20, symbol K); format: in vivo, Italian ryegrass (Lolium multiflorum); settings: foliage application, 320 g/ha, three weeks after application
Summary of the method: as §4

windgrass [19] = test: Test Example 5: herbicidal effect by foliage application, plastic box (Table 20, symbol L); format: in vivo, windgrass (Apera spica-venti); settings: foliage application, 320 g/ha, three weeks after application
Summary of the method: as §4

velvetleaf [20] = test: Test Example 5: herbicidal effect by foliage application, plastic box (Table 20, symbol M); format: in vivo, velvetleaf (Abutilon theophrasti); settings: foliage application, 320 g/ha, three weeks after application
Summary of the method: as §4

redroot pigweed [21] = test: Test Example 5: herbicidal effect by foliage application, plastic box (Table 20, symbol N); format: in vivo, redroot pigweed (Amaranthus retroflexus); settings: foliage application, 320 g/ha, three weeks after application
Summary of the method: as §4

lambsquarters [22] = test: Test Example 5: herbicidal effect by foliage application, plastic box (Table 20, symbol O); format: in vivo, lambsquarters (Chenopodium album); settings: foliage application, 320 g/ha, three weeks after application
Summary of the method: as §4

chickweed [23] = test: Test Example 5: herbicidal effect by foliage application, plastic box (Table 20, symbol P); format: in vivo, common chickweed (Stellaria media); settings: foliage application, 320 g/ha, three weeks after application
Summary of the method: as §4

false cleavers = test: Test Example 5: herbicidal effect by foliage application, plastic box (Table 20, symbol Q); format: in vivo, false cleavers (Galium spurium); settings: foliage application, 320 g/ha, three weeks after application
Summary of the method: as §4

persian speedwell [24] = test: Test Example 5: herbicidal effect by foliage application, plastic box (Table 20, symbol R); format: in vivo, Persian speedwell (Veronica persica); settings: foliage application, 320 g/ha, three weeks after application
Summary of the method: as §4

persian speedwell [25] = test: Test Example 4: herbicidal effect by soil treatment (Table 19, symbol R); format: in vivo, Persian speedwell (Veronica persica); settings: amount of applied herbicide 320 g/ha
Summary of the method: as §3

SMILES: Cc1nn(C)c(=O)c(-c2c(-c3ccc(OC(C)C)cc3)sc3cc(F)ccc23)c1O [3-019]
- Herbicidal effect, A: late watergrass (late watergrass): 3 (Herbicidal rate of 40% or more and less than 70%)
- Herbicidal effect, B: Japanese bulrush (Japanese bulrush): 3 (Herbicidal rate of 40% or more and less than 70%)
- Herbicidal effect, C: oval-leafed pondweed (oval-leafed pondweed): 3 (Herbicidal rate of 40% or more and less than 70%)
- herbicidal effect on H: barnyard grass (barnyard grass [1]): 3 (Herbicidal rate of 40% or more and less than 70%)
- herbicidal effect on D: Chinese sprangletop (Chinese sprangletop): 0 (Herbicidal rate of 5% or less (almost no effect))
- herbicidal effect on E: rice flat sedge (rice flat sedge): 3 (Herbicidal rate of 40% or more and less than 70%)
- herbicidal effect, F: southern crabgrass (southern crabgrass [2]): 0 (Herbicidal rate of 5% or less (almost no effect))
- herbicidal effect, G: green foxtail (green foxtail [3]): 2 (Herbicidal rate of 20% or more and less than 40%)
- herbicidal effect, H: barnyard grass (barnyard grass [4]): 0 (Herbicidal rate of 5% or less (almost no effect))
- herbicidal effect, I: wild oat (wild oat [5]): 0 (Herbicidal rate of 5% or less (almost no effect))
- herbicidal effect, J: blackgrass (blackgrass [6]): 0 (Herbicidal rate of 5% or less (almost no effect))
- herbicidal effect, K: Italian ryegrass (Italian ryegrass [7]): 0 (Herbicidal rate of 5% or less (almost no effect))
- herbicidal effect, L: windgrass (windgrass [8]): 0 (Herbicidal rate of 5% or less (almost no effect))
- herbicidal effect, M: velvetleaf (velvetleaf [9]): 0 (Herbicidal rate of 5% or less (almost no effect))
- herbicidal effect, N: redroot pigweed (redroot pigweed [10]): 3 (Herbicidal rate of 40% or more and less than 70%)
- herbicidal effect, O: lambsquarters (lambsquarters [11]): 3 (Herbicidal rate of 40% or more and less than 70%)
- herbicidal effect, P: chickweed (chickweed [12]): 0 (Herbicidal rate of 5% or less (almost no effect))
- F: southern crabgrass, herbicidal effect grade (southern crabgrass [13]): 0 (Herbicidal rate of 5% or less (almost no effect))
- G: green foxtail, herbicidal effect grade (green foxtail [14]): 4 (Herbicidal rate of 70% or more and less than 90%)
- H: barnyard grass, herbicidal effect grade (barnyard grass [15]): 3 (Herbicidal rate of 40% or more and less than 70%)
- I: wild oat, herbicidal effect grade (wild oat [16]): 0 (Herbicidal rate of 5% or less (almost no effect))
- J: blackgrass, herbicidal effect grade (blackgrass [17]): 3 (Herbicidal rate of 40% or more and less than 70%)
- K: Italian ryegrass, herbicidal effect grade (Italian ryegrass [18]): 3 (Herbicidal rate of 40% or more and less than 70%)
- L: windgrass, herbicidal effect grade (windgrass [19]): 3 (Herbicidal rate of 40% or more and less than 70%)
- M: velvetleaf, herbicidal effect grade (velvetleaf [20]): 3 (Herbicidal rate of 40% or more and less than 70%)
- N: redroot pigweed, herbicidal effect grade (redroot pigweed [21]): 5 (Herbicidal rate of 90% or more (almost completely withered))
- O: lambsquarters, herbicidal effect grade (lambsquarters [22]): 0 (Herbicidal rate of 5% or less (almost no effect))
- P: chickweed, herbicidal effect grade (chickweed [23]): 5 (Herbicidal rate of 90% or more (almost completely withered))
- Q: false cleavers, herbicidal effect grade (false cleavers): 4 (Herbicidal rate of 70% or more and less than 90%)
- R: persian speedwell, herbicidal effect grade (persian speedwell [24]): 5 (Herbicidal rate of 90% or more (almost completely withered))

SMILES: CCOc1cc(F)ccc1-c1oc2ccc(C)cc2c1-c1c(O)c(C)nn(C)c1=O [9-011]
- Herbicidal effect, A: late watergrass (late watergrass): 3 (Herbicidal rate of 40% or more and less than 70%)
- Herbicidal effect, B: Japanese bulrush (Japanese bulrush): 2 (Herbicidal rate of 20% or more and less than 40%)
- Herbicidal effect, C: oval-leafed pondweed (oval-leafed pondweed): 1 (Herbicidal rate of 5% or more and less than 20%)
- Herbicidal effect on H (barnyard grass), foliage application (barnyard grass [1]): 5 (Herbicidal rate of 90% or more (almost completely withered))
- Herbicidal effect on D (Chinese sprangletop), foliage application (Chinese sprangletop): 0 (Herbicidal rate of 5% or less (almost no effect))
- Herbicidal effect on E (rice flat sedge), foliage application (rice flat sedge): 4 (Herbicidal rate of 70% or more and less than 90%)
- F: southern crabgrass, herbicidal effect grade (southern crabgrass [2]): 2 (Herbicidal rate of 20% or more and less than 40%)
- G: green foxtail, herbicidal effect grade (green foxtail [3]): 0 (Herbicidal rate of 5% or less (almost no effect))
- H: barnyard grass, herbicidal effect grade (barnyard grass [4]): 0 (Herbicidal rate of 5% or less (almost no effect))
- I: wild oat, herbicidal effect grade (wild oat [5]): 0 (Herbicidal rate of 5% or less (almost no effect))
- J: blackgrass, herbicidal effect grade (blackgrass [6]): 2 (Herbicidal rate of 20% or more and less than 40%)
- K: Italian ryegrass, herbicidal effect grade (Italian ryegrass [7]): 0 (Herbicidal rate of 5% or less (almost no effect))
- L: windgrass, herbicidal effect grade (windgrass [8]): 3 (Herbicidal rate of 40% or more and less than 70%)
- M: velvetleaf, herbicidal effect grade (velvetleaf [9]): 0 (Herbicidal rate of 5% or less (almost no effect))
- N: redroot pigweed, herbicidal effect grade (redroot pigweed [10]): 3 (Herbicidal rate of 40% or more and less than 70%)
- O: lambsquarters, herbicidal effect grade (lambsquarters [11]): 4 (Herbicidal rate of 70% or more and less than 90%)
- P: chickweed, herbicidal effect grade (chickweed [12]): 1 (Herbicidal rate of 5% or more and less than 20%)
- R: persian speedwell, herbicidal effect grade (persian speedwell [25]): 3 (Herbicidal rate of 40% or more and less than 70%)
- herbicidal effect on southern crabgrass (F) (southern crabgrass [13]): 2 (Herbicidal rate of 20% or more and less than 40%)
- herbicidal effect on green foxtail (G) (green foxtail [14]): 2 (Herbicidal rate of 20% or more and less than 40%)
- herbicidal effect on barnyard grass (H) (barnyard grass [15]): 4 (Herbicidal rate of 70% or more and less than 90%)
- herbicidal effect on wild oat (I) (wild oat [16]): 3 (Herbicidal rate of 40% or more and less than 70%)
- herbicidal effect on blackgrass (J) (blackgrass [17]): 4 (Herbicidal rate of 70% or more and less than 90%)
- herbicidal effect on Italian ryegrass (K) (Italian ryegrass [18]): 0 (Herbicidal rate of 5% or less (almost no effect))
- herbicidal effect on windgrass (L) (windgrass [19]): 1 (Herbicidal rate of 5% or more and less than 20%)
- herbicidal effect on velvetleaf (M) (velvetleaf [20]): 3 (Herbicidal rate of 40% or more and less than 70%)
- herbicidal effect on lambsquarters (O) (lambsquarters [22]): 4 (Herbicidal rate of 70% or more and less than 90%)
- herbicidal effect on false cleavers (Q) (false cleavers): 4 (Herbicidal rate of 70% or more and less than 90%)
- herbicidal effect on persian speedwell (R) (persian speedwell [24]): 4 (Herbicidal rate of 70% or more and less than 90%)
